{"source": "PubChem BioAssay AID1259407", "about": "(Chemical Carcinogenesis Research Information System (CCRIS), 2018)", "test_system": "CCRIS mutagenicity, Ames/micronucleus/aberration tests", "experiment": "CCRIS mutagenicity studies", "key": {"[1]": {"conditions": "Test System: AMES SALMONELLA TYPHIMURIUM, Strain/Indicator: TA100, Metabolic Activation: NONE, Method: STANDARD PLATE"}, "[2]": {"conditions": "Test System: AMES SALMONELLA TYPHIMURIUM, Strain/Indicator: TA98, Metabolic Activation: NONE, Method: STANDARD PLATE"}, "[3]": {"conditions": "Test System: AMES SALMONELLA TYPHIMURIUM, Strain/Indicator: TA98, Metabolic Activation: RAT, LIVER, S-9, AROCLOR 1254, Method: STANDARD PLATE"}, "[4]": {"conditions": "Test System: AMES SALMONELLA TYPHIMURIUM, Strain/Indicator: TA100, Metabolic Activation: RAT, LIVER, S-9, AROCLOR 1254, Method: STANDARD PLATE"}, "[5]": {"conditions": "Test System: AMES SALMONELLA TYPHIMURIUM, Strain/Indicator: TA1535, Metabolic Activation: RAT, LIVER, S-9, AROCLOR 1254, Method: STANDARD PLATE"}, "[6]": {"conditions": "Test System: AMES SALMONELLA TYPHIMURIUM, Strain/Indicator: TA98, Metabolic Activation: S-9, Method: STANDARD PLATE"}, "[7]": {"conditions": "Test System: AMES SALMONELLA TYPHIMURIUM, Strain/Indicator: TA100, Metabolic Activation: S-9, Method: STANDARD PLATE"}, "[8]": {"conditions": "Test System: AMES SALMONELLA TYPHIMURIUM, Strain/Indicator: TA98, Metabolic Activation: NONE, Method: PREINCUBATION"}, "[9]": {"conditions": "Test System: AMES SALMONELLA TYPHIMURIUM, Strain/Indicator: TA98, Metabolic Activation: S-9, Method: PREINCUBATION"}, "[10]": {"conditions": "Test System: AMES SALMONELLA TYPHIMURIUM, Strain/Indicator: TA100, Metabolic Activation: NONE, Method: PREINCUBATION"}, "[11]": {"conditions": "Test System: AMES SALMONELLA TYPHIMURIUM, Strain/Indicator: TA100, Metabolic Activation: S-9, Method: PREINCUBATION"}}, "note": "Active and inactive are the calls of the source. How the calls were made is not given here.", "data": [{"smiles": "N#C[Se]Cc1ccccc1", "values": [{"measurement": "mutagenic call", "setting": "Test System: AMES SALMONELLA TYPHIMURIUM, Strain/Indicator: TA97A, Metabolic Activation: NONE, Method: STANDARD PLATE", "value": "inactive; negative"}, {"measurement": "mutagenic call", "setting": "[1]", "value": "active; positive"}]}, {"smiles": "O=C(O)COc1ccc2ccccc2c1", "values": [{"measurement": "mutagenic call", "setting": "Test System: AMES SALMONELLA TYPHIMURIUM, Strain/Indicator: TA97, Metabolic Activation: NONE, Method: STANDARD PLATE", "value": "inactive; negative"}, {"measurement": "mutagenic call", "setting": "Test System: AMES SALMONELLA TYPHIMURIUM, Strain/Indicator: TA97, Metabolic Activation: RAT, LIVER, S-9, AROCLOR 1254, Method: STANDARD PLATE", "value": "inactive; negative"}, {"measurement": "mutagenic call", "setting": "[2]", "value": "inactive; negative"}, {"measurement": "mutagenic call", "setting": "[3]", "value": "inactive; negative"}, {"measurement": "mutagenic call", "setting": "[1]", "value": "inactive; negative"}, {"measurement": "mutagenic call", "setting": "[4]", "value": "inactive; negative"}, {"measurement": "mutagenic call", "setting": "Test System: AMES SALMONELLA TYPHIMURIUM, Strain/Indicator: TA1535, Metabolic Activation: NONE, Method: STANDARD PLATE", "value": "inactive; negative"}, {"measurement": "mutagenic call", "setting": "[5]", "value": "inactive; negative"}]}, {"smiles": "c1cc(OCC2CO2)c2sncc2c1", "note": "(configuration not stated)", "values": [{"measurement": "mutagenic call", "setting": "[1]", "value": "active; positive"}]}, {"smiles": "COC(=O)[C@@H]1O[C@@H]1c1ccccc1", "values": [{"measurement": "mutagenic call", "setting": "[2]", "value": "inactive; negative"}, {"measurement": "mutagenic call", "setting": "[1]", "value": "active; positive"}, {"measurement": "mutagenic call", "setting": "[4]", "value": "inactive; negative"}, {"measurement": "mutagenic call", "setting": "[5]", "value": "inactive; negative"}, {"measurement": "mutagenic call", "setting": "Test System: AMES SALMONELLA TYPHIMURIUM, Strain/Indicator: TA1537, Metabolic Activation: RAT, LIVER, S-9, AROCLOR 1254, Method: STANDARD PLATE", "value": "inactive; negative"}, {"measurement": "mutagenic call", "setting": "Test System: AMES SALMONELLA TYPHIMURIUM, Strain/Indicator: TA1538, Metabolic Activation: RAT, LIVER, S-9, AROCLOR 1254, Method: STANDARD PLATE", "value": "inactive; negative"}]}, {"smiles": "O=Cc1c2ccccc2cc2ccccc12", "values": [{"measurement": "mutagenic call", "setting": "[3]", "value": "inactive; negative"}, {"measurement": "mutagenic call", "setting": "[1]", "value": "inactive; negative"}, {"measurement": "mutagenic call", "setting": "[4]", "value": "inactive; negative"}]}, {"smiles": "Oc1ccc(Oc2c(Cl)cc(Cl)cc2Cl)cc1", "values": [{"measurement": "mutagenic call", "setting": "[6]", "value": "inactive; negative"}, {"measurement": "mutagenic call", "setting": "[7]", "value": "inactive; negative"}, {"measurement": "mutagenic call", "setting": "Test System: AMES SALMONELLA TYPHIMURIUM, Strain/Indicator: YG1021, Metabolic Activation: S-9, Method: STANDARD PLATE", "value": "inactive; negative"}, {"measurement": "mutagenic call", "setting": "Test System: AMES SALMONELLA TYPHIMURIUM, Strain/Indicator: YG1024, Metabolic Activation: S-9, Method: STANDARD PLATE", "value": "inactive; negative"}, {"measurement": "mutagenic call", "setting": "Test System: AMES SALMONELLA TYPHIMURIUM, Strain/Indicator: YG1026, Metabolic Activation: S-9, Method: STANDARD PLATE", "value": "inactive; negative"}, {"measurement": "mutagenic call", "setting": "Test System: AMES SALMONELLA TYPHIMURIUM, Strain/Indicator: YG1029, Metabolic Activation: S-9, Method: STANDARD PLATE", "value": "inactive; negative"}]}, {"smiles": "C[C@@H](C(=O)OC(C)(C)C)N(N=[N+]=[N-])C(=O)OC(C)(C)C", "values": [{"measurement": "mutagenic call", "setting": "[1]", "value": "active; positive"}]}, {"smiles": "[Cl][Ce]([Cl])[Cl]", "values": [{"measurement": "mutagenic call", "setting": "Test System: E. COLI, Strain/Indicator: WP2 UVRA, Metabolic Activation: NONE, Method: SPOT TEST", "value": "inactive; negative"}]}, {"smiles": "CC[C@]1(O)CC2CN(CCc3c([nH]c4ccccc34)[C@@](C(=O)OC)(c3cc4c(cc3OC)N(C=O)[C@H]3[C@@](O)(C(=O)OC)[C@H](OC(C)=O)[C@]5(CC)C=CCN6CC[C@]43[C@@H]65)C2)C1", "note": "(some centres not stated)", "values": [{"measurement": "mutagenic call", "setting": "End Point: In vitro micronucleus, Test System: Human lymphoblastoid TK6 cells, Metabolic Activation: None", "value": "active; positive (p<0.001)"}, {"measurement": "mutagenic call", "setting": "End Point: In vivo micronucleus, Test System: Peripheral blood lymphocytes, Species: Human, Strain/Sex: Workers (6 males and 9 females) and matched controls, Route: Occupational", "value": "active; positive, both mean micronuclei rate and mean micronucleated cells rate signific"}, {"measurement": "mutagenic call", "setting": "[8]", "value": "inactive; negative"}, {"measurement": "mutagenic call", "setting": "[2]", "value": "inactive; negative"}, {"measurement": "mutagenic call", "setting": "[9]", "value": "inactive; negative"}, {"measurement": "mutagenic call", "setting": "[6]", "value": "inactive; negative"}, {"measurement": "mutagenic call", "setting": "[10]", "value": "inactive; negative"}, {"measurement": "mutagenic call", "setting": "[1]", "value": "inactive; negative"}, {"measurement": "mutagenic call", "setting": "[11]", "value": "inactive; negative"}, {"measurement": "mutagenic call", "setting": "[7]", "value": "inactive; negative"}, {"measurement": "mutagenic call", "setting": "Test System: AMES SALMONELLA TYPHIMURIUM, Strain/Indicator: TA1537, Metabolic Activation: S-9, Method: STANDARD PLATE", "value": "inactive; negative"}, {"measurement": "mutagenic call", "setting": "Test System: CHINESE HAMSTER V-79, Strain/Indicator: V-79 (HGPRT)/6-THIOGUANINE, Metabolic Activation: NONE", "value": "inactive; negative"}, {"measurement": "mutagenic call", "setting": "Test System: CHINESE HAMSTER V-79, Strain/Indicator: V-79/6-THIOGUANINE, Metabolic Activation: NONE, Method: SUSPENSION/PLATE", "value": "inactive; negative"}, {"measurement": "mutagenic call", "setting": "Test System: CHINESE HAMSTER V-79, Strain/Indicator: V-79/6-THIOGUANINE, Metabolic Activation: RAT, LIVER, HEPATOCYTES, Method: SUSPENSION/PLATE", "value": "inactive; negative"}, {"measurement": "mutagenic call", "setting": "Test System: E. COLI, Strain/Indicator: WP2 (HCR), Metabolic Activation: NONE, Method: STANDARD PLATE", "value": "inactive; negative"}, {"measurement": "mutagenic call", "setting": "Test System: E. COLI, Strain/Indicator: WP2 (HCR), Metabolic Activation: S-9, Method: STANDARD PLATE", "value": "inactive; negative"}, {"measurement": "mutagenic call", "setting": "Test System: MOUSE LYMPHOMA, Strain/Indicator: L5178Y (TK+/TK-), Metabolic Activation: NONE", "value": "active; positive"}]}, {"smiles": "COc1ccc2c3c(cccc13)C(=O)N(C)C2=O", "values": [{"measurement": "mutagenic call", "setting": "[8]", "value": "inactive; negative"}, {"measurement": "mutagenic call", "setting": "[9]", "value": "inactive; negative"}, {"measurement": "mutagenic call", "setting": "[10]", "value": "inactive; negative"}, {"measurement": "mutagenic call", "setting": "[11]", "value": "inactive; negative"}]}, {"smiles": "Nn1nnc2c([nH]c3ccccc32)c1=O", "values": [{"measurement": "mutagenic call", "setting": "Test System: AMES SALMONELLA TYPHIMURIUM, Strain/Indicator: TA97, Metabolic Activation: NONE, Method: PREINCUBATION", "value": "active; positive"}, {"measurement": "mutagenic call", "setting": "Test System: AMES SALMONELLA TYPHIMURIUM, Strain/Indicator: TA97, Metabolic Activation: S-9 (10%), Method: PREINCUBATION", "value": "active; positive"}, {"measurement": "mutagenic call", "setting": "[8]", "value": "active; positive"}, {"measurement": "mutagenic call", "setting": "Test System: AMES SALMONELLA TYPHIMURIUM, Strain/Indicator: TA98, Metabolic Activation: S-9 (10%), Method: PREINCUBATION", "value": "active; positive"}, {"measurement": "mutagenic call", "setting": "[10]", "value": "active; positive"}, {"measurement": "mutagenic call", "setting": "Test System: AMES SALMONELLA TYPHIMURIUM, Strain/Indicator: TA100, Metabolic Activation: S-9 (10%), Method: PREINCUBATION", "value": "active; positive"}, {"measurement": "mutagenic call", "setting": "Test System: AMES SALMONELLA TYPHIMURIUM, Strain/Indicator: TA102, Metabolic Activation: NONE, Method: PREINCUBATION", "value": "active; positive"}, {"measurement": "mutagenic call", "setting": "Test System: AMES SALMONELLA TYPHIMURIUM, Strain/Indicator: TA102, Metabolic Activation: S-9 (10%), Method: PREINCUBATION", "value": "active; positive"}]}]}
